Values after ≈ are worked out from the molar mass of the structure shown. Values joined by “and” are separate entries in the source; they are usually repeats but may differ in a detail not shown here. Equal values may be shown once. Read-outs that look alike come from different tables or passages of the source.
Legend:
Vero E6 cells = settings: cited from earlier work
[1] = [11]; cited from earlier work
[2] = assay type: physicochemical; settings: data and pHp theory
Excerpt: pH=pKa+Log10[Nic−ve]/[NicOH] Eqn 1
pHp=pKa+log(S−So)/So Eqn 4
So=the molar intrinsic solubility of the undissociated acid (NicOH), and S=the molar concentration of the salt form initially added.

SARS-COV-2 syncytia = settings: Braga et al [18]; cited from earlier work
[3] = test system: human airway epithelial cells; test: cells; settings: Epithelial cell, read-out: IC50 for cell viability and ATP
physchem [4] = test: physchem
Method: The pKa is defined as the negative base-10 logarithm of the acid dissociation constant (Ka) of a solution). It is an important parameter to consider here because pKa and pH are equal when half of the acid has dissociated. […] Once the pKa is measured (or estimated) the well-known Henderson-Hasselbalch equation calculates the fractions of each species.

[5] = cited from earlier work
physchem [6] = settings: 20 °C, pH 9.5, aqueous buffer, kinetic from dmso stock
physchem [7] = test: physchem; remark: listed apart in the source
in vitro = settings: human
[8] = test system: human airway epithelial cells; settings: 300 uM
[9] = Supersaturated solution precipitation of niclosamide: amount in solution; settings: pH 9.5, 3 mM/200 μM
[10] = test system: SARS-CoV-2 in Calu-3 cells; settings: cited from earlier work
[11] = Equilibrium dissolution of AK Sci niclosamide versus pH (supernatant concentration by UV/Vis at 333 nm)
[12] = test system: SARS-CoV-2 in Vero 6 cells; settings: cited from earlier work
[13] = test system: SARS-CoV-2 in Huh-7 cells; settings: infected liver Huh-7 cells, Mirabelli et al [60]; cited from earlier work

For `O=C(Nc1ccc([N+](=O)[O-])cc1Cl)c1cc(Cl)ccc1O` [Niclosamide, 5-Chloro-N-(2-chloro-4-nitrophenyl)-2-hydroxybenzamide], the CC50 (Vero E6 cells) is listed as 205 µM, the “concentration to which host cell viability extended” value (Vero E6 cells) is listed as over 100 µM and the acute oral toxicity [1] is listed as over 1000 mg/kg. For the same compound, the “pH at which a 30 uM niclosamide solution can be made” value [2] was 8.16, the “pH at which a 50 uM niclosamide solution can be made” value [2] was 8.39 and the “pH at which a 200 uM niclosamide solution can be made” value [2] was 9.01 and 8.92. The “pH at which a 300 uM niclosamide solution can be made” value [2] was 9.19 and 9.10, the “pH at which a 20 uM niclosamide solution can be made” value ([2]; pKa 7.12, So 2.53 uM) was 7.96 and 7.98 and the “effect on syncytia in vitro” value (SARS-COV-2 syncytia) was “protected against syncytia in vitro”. For the same compound, the IC50 [3] was 20 to 30 µM, the pKa (physchem [4]) was 6.52 and the solubility ([5]; pH 6.4) was 1.6 mg/L (≈ 4.89 µM). The solubility ([5]; pH 9.1) was 110 mg/L (≈ 336 µM), the “factor of increase of fitted logarithmic dissolution rate” value (over pH range 8.62 to 9.44, nominal 0.5 mM-1 mM) was “over 3 ×” and the “fitted logarithmic dissolution rate, factor of ln(x)” value (pH 9.44 buffer, more optimized (standardized) stirring) was 94. It also gave a solubility kinetic (physchem [6]) of 3000 µM (≈ 981 µg/mL), a solubility (physchem [7]; pH 6.4, aqueous buffer) of 4.89 µM (≈ 1.6 µg/mL) and a solubility (physchem [7]; pH 9.1, aqueous buffer) of 336 µM (≈ 110 µg/mL). For the same compound, the viability at 300 uM (in vitro) was 30%, the “airway epithelial cells still alive upon washout” value [8] was 17% and the cell death ([8]; 6 hr) was 83%. The supersaturation [9] was about 15 times, the “IC100 for inhibiting viral replication (estimated from graph)” value ([10]; Calu-3 cells, Ko et al [34]) was 2 to 3 µM and the IC50 ([10]; Calu-3 cells, Ko et al [34], read-out: IC50 for viral replication) was 840 nM. For the same compound, the “effect on viral replication” value ([10]; respiratory Calu-3 cells, 2.5 uM, Braga et al [18]) was “showed inhibition of viral replication”, the “amount of niclosamide in solution” value ([11]; pH 6-7 (tap water, saliva)) was about 2 µM and the “conversion of added powder at high pH” value ([11]; pH 9.7, 10.0 and 10.45 carbonate-bicarbonate buffer, 1 hr stirring) was “converted to red crystalline micro-crystals”. The IC50 ([12]; Vero 6 cells, Braga et al [18], read-out: IC50 for viral replication) was 340 nM, the “concentration to completely prevent viral replication” value ([12]; Vero 6 cells, Brunaugh et al [91], including purported enhancement by lysozyme) was 0.4 µM and the “IC100, complete inhibition of viral replication” value ([12]; Vero 6 cells, Jeon et al [14]) was 1 µM. The IC50 ([12]; Vero 6 cells, Jeon et al [14], read-out: IC50 for viral replication) was 280 nM, the IC50 ([12]; Vero E6 cells, Mostafa et al [29], read-out: IC50 for inhibiting viral replication) was 160 nM and the IC50 [13] was 140 nM.

— patent US20230414637A1 (priority 2020, published 2023)
